Reference: patent US11427783B2, “Perfuming compositions” (Firmenich SA, priority 2016, dated 2022)
Like-named read-outs stand apart in the source and are kept apart here.

Assays:
[1] = Log P (n-octanol/water) of perfuming compounds
[2] = physchem
[3] = Volatility of perfuming compounds in air; assay type: physicochemical; conditions: for Volatility: Table 5, perfuming compounds having a green note
[4] = Table 6, perfuming compounds having a fruity note
[5] = n-octanol/water, perfuming compounds having a fruity note (Table 6)
[6] = Table 8, perfuming compounds having a sweet note
[7] = Table 9, perfuming compounds having a gourmand note
[8] = Table 5, perfuming compounds having a green note

Row | Molecule | logP ([2]; n-octanol/water) | Log P (n-octanol/water) [1, 5] | other results
1 | CC(C)C(=O)OCCOc1ccccc1 [2-phenoxyethyl 2-methylpropanoate] | 2.82 |  | Log P (n-octanol/water) [1, 4]: 2.82
2 | CC(=O)OCC=C(C)C [3-methyl-2-buten-1-yl acetate] | 2.19 | 2.19 | 
3 | CC(C)(O)CCC1CCCCC1 [4-CYCLOHEXYL-2-METHYL-2-BUTANOL] | 3.93 |  | Log P (n-octanol/water) ([1]; Table 7, citrus note): 3.93
4 | C=CCCCCCCCCO [9-DECEN-1-OL] | 3.7 |  | Log P (n-octanol/water) ([1]; Table 7, citrus note): 3.70
5 | CCCCCC/C(C=O)=C\c1ccccc1 [(2E)-2-benzylideneoctanal] | 4.86 |  | Log P (n-octanol/water) [1, 4]: 4.86
6 | CC(=O)OC/C=C(/C)CCC=C(C)C [(2Z)-3,7-dimethyl-2,6-octadien-1-yl acetate] | 3.81 |  | Log P (n-octanol/water) [1, 4]: 3.81
7 | CC/C=C\CCOC(=O)C/C=C\CC [(3Z)-3-hexen-1-yl (3Z)-3-hexenoate] | 4.22 | 4.22 | Log P (n-octanol/water) [1, 6]: 4.22; Log P (n-octanol/water) [1, 7]: 4.22
8 | CC/C=C\CCOC(=O)c1ccccc1 [(3Z)-3-hexen-1-yl benzoate] | 4.21 |  | Log P (n-octanol/water) [1, 4]: 4.21; Log P (n-octanol/water) ([1]; Table 7, citrus note): 4.21
9 | CC/C=C\CCOC(=O)CCC [(3Z)-3-hexen-1-yl butyrate] | 3.59 | 3.59 | 
10 | CC/C=C\CCOC(=O)OC [(3Z)-hex-3-en-1-yl methyl carbonate] | 2.97 | 2.97 | 
11 | O=C1CCCCCCC/C=C/CCCCCCO1 [(10E)-oxacycloheptadec-10-en-2-one] | 6.15 |  | Log P (n-octanol/water) ([1]; Table 7, citrus note): 6.15
12 | C/C=C/c1ccc(OC(C)=O)c(OC)c1 [(E)-2-METHOXY-4-(1-PROPENYL)PHENYL ACETATE] | 2.56 |  | Log P (n-octanol/water) ([1]; Table 7, citrus note): 2.56
13 | CCCCC/C(C=O)=C\c1ccccc1 [(E)-2-PENTYL-3-PHENYL-2-PROPENAL] | 4.3 |  | Log P (n-octanol/water) ([1]; Table 7, citrus note): 4.30
14 | O=Cc1ccccc1 [BENZALDEHYDE] |  |  | Log P (n-octanol/water) [1, 6]: 1.33; logP [2]: 1.33
15 | O=C(OCc1ccccc1)c1ccccc1 [BENZYL BENZOATE] | 3.64 |  | Log P (n-octanol/water) ([1]; Table 7, citrus note): 3.64
16 | CCC(=O)OCc1ccccc1 [BENZYL PROPANOATE] | 2.35 |  | Log P (n-octanol/water) [1, 4]: 2.35

Row | Molecule | logP ([2]; n-octanol/water) | Log P (n-octanol/water) [1, 5] | other results
17 | CCCC(=O)OCC [ETHYL BUTANOATE] | 2.03 | 2.03 | 
18 | CCCCCC(=O)OCC [ETHYL HEXANOATE] | 3.12 | 3.12 | Log P (n-octanol/water) [1, 6]: 3.12; Log P (n-octanol/water) [1, 7]: 3.12
19 | CCCCCCOC(=O)c1ccccc1O [HEXYL 2-HYDROXYBENZOATE] | 5.55 |  | Log P (n-octanol/water) [1, 4]: 5.55; Log P (n-octanol/water) ([1]; Table 7, citrus note): 5.55
20 | CCCCCCOC(C)=O [HEXYL ACETATE] | 3.09 | 3.09 | 
21 | CCCCCCOC(=O)CCCCC [HEXYL HEXANOATE] | 5.56 |  | Volatility (μg/l air) [3, 4]: 105.52 μg/l air
22 | CCCCCC(=O)OC [METHYL HEXANOATE] | 2.65 | 2.65 | 
23 | CCCCCCCC=O [OCTANAL] | 2.94 |  | Volatility [3]: 4147.61 μg/l air
24 | CCC(C)c1nccnc1OC (stereo not drawn) [PYRAZOBUTYLE] |  |  | Log P (n-octanol/water) [1, 8]: 2.88; Volatility [3]: 1617.21 μg/l air
25 | O=Cc1ccc2c(c1)OCO2 [benzo[d][1,3]dioxole-5-carbaldehyde] |  |  | logP [2]: 1.52; Volatility (μg/l air) [3, 7]: 61.82 μg/l air
26 | CCCCC/C=C\C=C\C(=O)OCC [ethyl (2E,4Z)-2,4-decadienoate] | 4.69 |  | Log P (n-octanol/water) [1, 4]: 4.69
27 | CCCCCCCC(=O)OCC [ethyl octanoate] | 4.2 |  | Volatility [3]: 800.05 μg/l air
28 | CCCCCCOC(=O)C(C)C [hexyl 2-methylpropanoate] | 4.31 | 4.31 | 
29 | C/C=C(\C)C(=O)OCCCCCC [hexyl (2E)-2-methyl-2-butenoate] | 4.8 | 4.80 | Log P (n-octanol/water) [1, 6]: 4.80
30 | CCCCCC/C=C/C(=O)OC [methyl (2E)-2-nonenoate] | 4.05 | 4.05 | 
31 | (2,2-DIMETHOXYETHYL)BENZENE |  |  | Log P (n-octanol/water) [1, 8]: 2.10; Volatility [3]: 456.97 μg/l air
